The test concerns IL-1β production in PMA-differentiated THP-1 cells. Description: IL-1β production in PMA-differentiated THP-1 cells stimulated with gramicidin (hTHP-1 assay, 2% fetal bovine serum; Procedures 1-3). Type of test: cell-based, human. The conditions noted are these: read-out: IC50. Put shortly:
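IL-1β released into supernatants was read by HTRF after 2 h gramicidin (5 μM) challenge. Before challenge, compounds (3-fold dilutions, top 100 μM, 0.37% DMSO) were given 1 h on THP-1 cells differentiated with PMA (20 ng/ml, 16-18 h) and held in 2% FBS medium.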

Where [1] appears, read: hTHP-1 assay containing 2% fetal bovine serum, Table B2, class symbols.

Molecules are shown by their SMILES. Where two headings read alike, the source gives them in different places.

The term IC50 denotes the concentration needed to halve the response being measured. As to `CC(C)(O)c1nc(CO)c(S(N)(=O)=NC(=O)Nc2c3c(cc4c2CCC4)CCC3)s1` (single isomer, unassigned) [Example 542, (S) or (R)-N′-((1,2,3,5,6,7-hexahydro-s-indacen-4-yl)carbamoyl)-4-(hydroxymethyl)-2-(2-hydroxypropan-2-yl)thiazole-5-sulfonimidamide], under setting [1], the half-inhibitory concentration (IC50) lay within 1000 to 5000 nM. As for `CC(C)(O)c1nc(CO)c(S(N)(=O)=NC(=O)Nc2c3c(cc4c2CCC4)CCC3)s1` (single isomer, unassigned) [Example 543, (R) or (S)-N′-((1,2,3,5,6,7-hexahydro-s-indacen-4-yl)carbamoyl)-4-(hydroxymethyl)-2-(2-hydroxypropan-2-yl)thiazole-5-sulfonimidamide], under setting [1], the half-inhibitory concentration (IC50) fell in the range of 8 to 40 nM.

Turning to `CC(C)(O)c1ccc(S(N)(=O)=NC(=O)Nc2c3c(c(C#N)c4c2CCC4)CCC3)cn1` (single isomer, unassigned) [Example 544, (S) or (R)-N′-((8-cyano-1,2,3,5,6,7-hexahydro-s-indacen-4-yl)carbamoyl)-6-(2-hydroxypropan-2-yl)pyridine-3-sulfonimidamide], the half-inhibitory concentration (IC50) under setting [1] lay within 5000 to 30000 nM. The same measure, in the same setting: then `CC(C)(O)c1ccc(S(N)(=O)=NC(=O)Nc2c3c(c(C#N)c4c2CCC4)CCC3)cn1` (single isomer, unassigned) [Example 545, (R) or (S)-N′-((8-cyano-1,2,3,5,6,7-hexahydro-s-indacen-4-yl)carbamoyl)-6-(2-hydroxypropan-2-yl)pyridine-3-sulfonimidamide], with 40 to 200 nM.

On to `NS(=O)(=NC(=O)Nc1c2c(cc3c1CC3)CCC2)c1cnn2c1OCCC2` (single isomer, unassigned) [Example 546, (R) or (S)-N′-((2,4,5,6-tetrahydro-1H-cyclobuta[f]inden-3-yl)carbamoyl)-6,7-dihydio-5H-pyrazolo[5,1-b][1,3]oxazine-3-suIfonimidamide], for which the IC50 under setting [1] was in the range of 200 to 1000 nM.

Turning to `NS(=O)(=NC(=O)Nc1c2c(cc3c1CC3)CCC2)c1cnn2c1OCCC2` (single isomer, unassigned) [Example 547, (S) or (R)-N′-((2,4,5,6-tetrahydro-1H-cyclobuta[f]inden-3-yl)carbamoyl)-6,7-dihydio-5H-pyrazolo[5,1-b][1,3]oxazine-3-sulfonimidamide], under setting [1], the IC50 lay in the range of 1000 to 5000 nM. On the same count and under the same terms, then `CC(C)n1nc(S(N)(=O)=NC(=O)Nc2c3c(c(C#N)c4c2CCC4)CCC3)cc1CO` (single isomer, unassigned) [Example 548, (R) or (S)-N′-((8-cyano-1,2,3,5,6,7-hexahydro-s-indacen-4-yl)carbamoyl)-5-(hydroxymethyl)-1-isopropyl-1H-pyrazole-3-sulfonimidamide], with 40 to 200 nM; and `CC(C)n1nc(S(N)(=O)=NC(=O)Nc2c3c(c(C#N)c4c2CCC4)CCC3)cc1CO` (single isomer, unassigned) [Example 549, (S) or (R)-N′-((8-cyano-1,2,3,5,6,7-hexahydro-s-indacen-4-yl)carbamoyl)-5-(hydroxymethyl)-1-isopropyl-1H-pyrazole-3-sulfonimidamide], with 5000 to 30000 nM.

For `NS(=O)(=NC(=O)Nc1c2c(cc3c1CCC3)CCC2)c1cccc(CN2CCOCC2)c1` (single isomer, unassigned) [Example 550, (R) or (S)-N′-((1,2,3,5,6,7-hexahydro-s-indacen-4-yl)carbamoyl)-3-(morpholinomethyl) benzenesulfonimidamide], for the setting “Homo sapiens, THP-1, hTHP-1 assay containing 2% fetal bovine serum, Table B2, class symbols”, the 50% inhibitory concentration (IC50) is 1000 to 5000 nM.

Consider `NS(=O)(=NC(=O)Nc1c2c(cc3c1CCC3)CCC2)c1cccc(CN2CCOCC2)c1` (single isomer, unassigned) [Example 551, (S) or (R)-N′-((1,2,3,5,6,7-hexahydro-s-indacen-4-yl)carbamoyl)-3-(morpholinomethyl) benzenesulfonimidamide], for which the IC50 (Homo sapiens, THP-1, hTHP-1 assay containing 2% fetal bovine serum, Table B2, given as bound) was more than 30000 nM. Take `CC(C)(O)c1cc(S(N)(=O)=NC(=O)Nc2c3c(cc4c2CCC4)CCC3)sc1-c1ccccc1` (single isomer, unassigned) [Example 552, (R) or (S)-N′-((1,2,3,5,6,7-hexahydro-s-indacen-4-yl)(2-4-carbamoyl)-hydroxypropan-2-yl)-5-phenylthiophene-2-sulfonimidamide]: under setting [1], the concentration for half-maximal inhibition (IC50) was in the range of 40 to 200 nM.

In the case of `CC(C)(O)c1cc(S(N)(=O)=NC(=O)Nc2c3c(cc4c2CCC4)CCC3)sc1-c1ccccc1` (single isomer, unassigned) [Example 553, (S) or (R)-N′-((1,2,3,5,6,7-hexahydro-s-indacen-4-yl)carbamoyl)-(4-2-hydroxypropan-2-yl)-5-phenylthiophene-2-sulfonimidamide], the half-inhibitory concentration (IC50) under setting [1] was 5000 to 30000 nM. Same read-out and setting: then `CC(C)c1cc(S(N)(=O)=NC(=O)Nc2c3c(cc4c2CCC4)CCC3)c(F)cn1` (single isomer, unassigned) [Example 554, (S) or (R)-5-fluoro-N′-((1,2,3,5,6,7-hexahydro-s-indacen-4-yl)carbamoyl)-2-isopropylpyridine-4-sulfonimidamide], with 5000 to 30000 nM; and `CC(C)c1cc(S(N)(=O)=NC(=O)Nc2c3c(cc4c2CCC4)CCC3)c(F)cn1` (single isomer, unassigned) [Example 555, (R) or (S)-5-fluoro-N′-((1,2,3,5,6,7-hexahydro-s-indacen-4-yl)carbamoyl)-2-isopropylpyridine-4-sulfonimidamide], with 200 to 1000 nM; and `CC(C)(O)c1nc(S(N)(=O)=NC(=O)Nc2c3c(cc4c2CCC4)CCC3)cs1` (single isomer, unassigned) [Example 556, (S) or (R)-N′-((1,2,3,5,6,7-hexahydro-s-indacen-4-yl)carbamoyl)-2-(2-hydroxypropan-2-yl)thiazole-4-sulfonimidamide], with 5000 to 30000 nM. Take `CC(C)(O)c1nc(S(N)(=O)=NC(=O)Nc2c3c(cc4c2CCC4)CCC3)cs1` (single isomer, unassigned) [Example 557, (R) or (S)-N′-((1,2,3,5,6,7-hexahydro-s-indacen-4-yl)cartoamoyl)-2-(2-hydroxypropan-2-yl)thiazole-4-sulfoni midamide]: the IC50 under setting [1] was in the range of 40 to 200 nM. Same read-out and setting: then `CN1CCc2cc(S(N)(=O)=NC(=O)Nc3c4c(cc5c3CCC5)CCC4)sc2C1` (single isomer, unassigned) [Example 558, (R) or (S)-N′-((1,2,3,5,6,7-hexahydro-5-indacen-4-yl)carbamoyl)-6-methyl-4,5,6,7-tetrahydrothieno [2,3-c]pyridine-2-sulfonimidamide], with 40 to 200 nM; and `CN1CCc2cc(S(N)(=O)=NC(=O)Nc3c4c(cc5c3CCC5)CCC4)sc2C1` (single isomer, unassigned) [Example 559, (S) or (R)-N′-((1,2,3,5,6,7-hexahydro-s-indacen-4-yl)carbamoyl)-6-methyl-4,5,6,7-tetrahydrothieno[2,3-c]pyridine-2-sulfonimidamide], with 1000 to 5000 nM; and `CC(C)(O)c1csc(S(N)(=O)=NC(=O)Nc2c3c(cc4c2CC4)CCC3)c1` (single isomer, unassigned) [Example 560, (R) or (S)-4-(2-hydroxypropan-2-N′-((2,4,5,6-tetrahydro-1H-cyclobuta[f]inden-3 - y])carbamoyl) thiophene-2-sulfonimidamide], with 8 to 40 nM. As for `CC(C)(O)c1csc(S(N)(=O)=NC(=O)Nc2c3c(cc4c2CC4)CCC3)c1` (single isomer, unassigned) [Example 561, (S) or (R)-4-(2-hydroxypropan-2-N′-((2,4,5,6-tetrahydro-1H-cyclobuta[f]inden-3 - y])carbamoyl) thiophene-2-sulfonimidamide], under setting [1], the half-maximal inhibitory concentration (IC50) lay in the range of 200 to 1000 nM.

For the origin of these results see US20230051589A1, “COMPOUNDS AND COMPOSITIONS FOR TREATING CONDITIONS ASSOCIATED WITH NLRP ACTIVITY” (Novartis AG, priority 2018, published 2023).
